In ChEMBL document CHEMBL4433263, “Tapping the therapeutic potential of protein tyrosine phosphatase 4A with small molecule inhibitors” (Bioorg Med Chem Lett, 2019):

Tests used:
[1] = target: T1, Protein tyrosine phosphatase type IVA 1 (Homo sapiens, UniProt Q93096); test: Inhibition of PTP4A1 (unknown origin)
T1 sequence (Q93096 whole entry): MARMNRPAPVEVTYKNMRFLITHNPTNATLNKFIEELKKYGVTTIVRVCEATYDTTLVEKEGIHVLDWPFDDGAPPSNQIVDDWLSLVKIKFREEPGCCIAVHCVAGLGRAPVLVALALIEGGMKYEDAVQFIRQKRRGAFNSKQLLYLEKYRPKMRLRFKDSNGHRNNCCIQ

[2] = target: T2, Protein tyrosine phosphatase type IVA 2 (Homo sapiens, UniProt Q12974); test: Inhibition of PTP4A2 (unknown origin)
T2 sequence (Q12974 whole entry): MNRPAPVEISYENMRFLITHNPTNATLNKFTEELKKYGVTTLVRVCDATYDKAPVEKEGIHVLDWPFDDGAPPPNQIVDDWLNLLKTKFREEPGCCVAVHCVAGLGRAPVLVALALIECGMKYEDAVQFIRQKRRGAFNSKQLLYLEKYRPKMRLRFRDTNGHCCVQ

[3] = target: Protein tyrosine phosphatase type IVA 3 (Homo sapiens, UniProt O75365); test: Inhibition of PTP4A3 (unknown origin)
Protein tyrosine phosphatase type IVA 3, sequence (O75365 whole entry): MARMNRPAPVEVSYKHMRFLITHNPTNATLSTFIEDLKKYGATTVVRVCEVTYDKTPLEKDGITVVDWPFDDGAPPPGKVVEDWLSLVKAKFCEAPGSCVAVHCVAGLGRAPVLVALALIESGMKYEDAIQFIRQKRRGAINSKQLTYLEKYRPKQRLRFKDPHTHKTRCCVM

[4] = target: T3, Tyrosine-protein phosphatase non-receptor type 1 (Homo sapiens, UniProt P18031); test: Inhibition of human PTP1B assessed as reduction in hydrolysis using DIFMUP as substrate incubated for 30 mins in presence of DTT by Fluorescence based method
T3 sequence (P18031 whole entry): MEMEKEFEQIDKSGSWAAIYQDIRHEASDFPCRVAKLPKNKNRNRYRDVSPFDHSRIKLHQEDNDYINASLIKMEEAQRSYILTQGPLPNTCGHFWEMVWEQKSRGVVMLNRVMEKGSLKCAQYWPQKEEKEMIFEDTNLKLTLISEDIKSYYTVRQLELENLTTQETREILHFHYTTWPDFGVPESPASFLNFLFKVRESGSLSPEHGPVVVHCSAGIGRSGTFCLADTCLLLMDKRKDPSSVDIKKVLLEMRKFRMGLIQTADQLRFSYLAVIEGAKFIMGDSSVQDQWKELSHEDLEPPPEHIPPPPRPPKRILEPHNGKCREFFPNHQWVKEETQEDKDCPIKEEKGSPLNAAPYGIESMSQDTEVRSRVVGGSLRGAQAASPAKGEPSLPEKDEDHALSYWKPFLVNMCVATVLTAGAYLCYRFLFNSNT

| IC50 [1] [nM] | IC50 [2] [nM] | IC50 [3] [nM] | IC50 [4] [nM] | Structure (SMILES) |
| --- | --- | --- | --- | --- |
| > 20000 | – | – | – | Cc1cc2c(cc1C)CN(c1cccc(C(=O)N/N=C/c3ccc(C(=O)O)cc3)c1)C2 |
| 300 | 300 | 300 | – | N=C(N)c1ccc(OCCCCCOc2ccc(C(=N)N)cc2)cc1 [PENTAMIDINE] |
| – | – | – | > 80000 | N=C1C(=O)NC(=O)c2cc(-c3ccccc3)sc21 |
